Measured values taken from patent US20090131481A1, “Transcription Factor Modulating Compounds and Methods of Use Thereof” (Paratek Pharmaceuticals, Inc., published 2009).
Read-outs that look alike come from different tables or passages of the source.

What was measured:
ExsA = target: T1, ExsA (Pseudomonas aeruginosa, UniProt P26993); experiment: Chemiluminescence-based ExsA-DNA binding assay; design: species or system P. aeruginosa; conditions: Table 7, cell-free system; read-out: ExsA EC50
T1 construct: made in house
T1 sequence (P26993 1-278): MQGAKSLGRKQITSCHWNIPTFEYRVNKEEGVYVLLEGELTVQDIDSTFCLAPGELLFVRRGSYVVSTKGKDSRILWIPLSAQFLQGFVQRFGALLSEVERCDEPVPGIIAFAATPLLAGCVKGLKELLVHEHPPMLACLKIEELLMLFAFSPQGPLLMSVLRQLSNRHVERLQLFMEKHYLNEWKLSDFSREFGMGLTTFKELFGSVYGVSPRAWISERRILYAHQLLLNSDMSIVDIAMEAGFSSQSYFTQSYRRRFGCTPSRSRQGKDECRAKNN

P. aeruginosa = P. aeruginosa cytotoxicity whole cell assay (J774 cells, LDH release); conditions: relative to vehicle treated cells infected with wild type P. aeruginosa
Y. pseudotuberculosis = experiment: microbe, parasite or virus in culture; conditions: Yersinia pseudotuberculosis, J774, read-out: % Cytotoxicity
LcrF (VirF) = LcrF (VirF) (Yersinia pestis, UniProt P28808); experiment: biochemical; type: binding, Y. pseudotuberculosis
Sequence of LcrF (VirF) (P28808 whole entry, looked up): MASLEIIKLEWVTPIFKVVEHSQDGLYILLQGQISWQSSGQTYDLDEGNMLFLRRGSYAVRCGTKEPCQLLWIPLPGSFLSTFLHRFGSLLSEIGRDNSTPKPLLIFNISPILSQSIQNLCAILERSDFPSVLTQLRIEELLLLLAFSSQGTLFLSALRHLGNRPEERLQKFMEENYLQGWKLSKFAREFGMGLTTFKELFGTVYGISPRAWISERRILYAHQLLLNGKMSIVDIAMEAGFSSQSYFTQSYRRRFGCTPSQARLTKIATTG

[1] = EC50 for inhibition of LcrF(VirF)-DNA binding
[2] = read-out: EC50 for inhibition of LcrF(VirF)-DNA binding

Compound | EC50 (ExsA) | Cytotoxicity at 50 μg/mL Pseudomonas (P. aeruginosa) | activity at 50 µg/mL (Y. pseudotuberculosis) | EC50 (LcrF (VirF); [1]) | EC50 (LcrF (VirF); [2])
CC(=O)c1ccc(/C=C/C(=O)N(CC(N)=O)c2ccc(-c3nc4ccc(C#N)cc4n3O)cc2)cc1 [GQ] | > 25 µM | * (reduced P. aeruginosa cytotoxicity to 99-75% of untreated, wild type levels at 50 mg/mL) | – | – | –
CS(=O)(=O)c1ccc(/C=C/C(=O)Nc2ccc(-c3nc4ccc([N+](=O)[O-])cc4n3O)cc2)cc1 [GU] | < 10 µM | ** (reduced P. aeruginosa cytotoxicity below 75% of untreated, wild type levels at 50 mg/mL) | – | – | –
O=C(/C=C/c1ccc(F)cc1)Nc1ccc(-c2nc3ccc([N+](=O)[O-])cc3n2OCP(=O)(O)O)cc1 [DW, (2-{4-[(E)-3-(4-Fluoro-phenyl)-acrloylamino]-phenyl}-6-nitro-benzoimidazol-1-yloxymethyl)-phosphonic acid] | – | * (reduced P. aeruginosa cytotoxicity to 99-75% of untreated, wild type levels at 50 mg/mL) | 75 to 99% | – | –
CC(=O)c1ccc(/C=C/C(=O)N(CC(N)=O)c2ccc(-c3nc4ccc([N+](=O)[O-])cc4n3O)cc2)cc1 [GP, (E)-3-(4-Acetyl-phenyl)-N-carbamoylmethyl-N-[4-(1-hydroxy-6-nitro-1H-benzoimidazol-2-yl)-phenyl]-acrylamide] | > 25 µM | * (reduced P. aeruginosa cytotoxicity to 99-75% of untreated, wild type levels at 50 mg/mL) | – | – | –
N#Cc1ccc2nc(-c3ccc(NC(=O)c4ccc(-n5ccnc5)cc4)cc3)n(O)c2c1 [GA] | 10 to 25 µM | ** (reduced P. aeruginosa cytotoxicity below 75% of untreated, wild type levels at 50 mg/mL) | – | 10 to 25 µM | –
O=C(/C=C/c1ccc(F)cc1F)Nc1ccc(-c2nc3ccc([N+](=O)[O-])cc3n2O)nc1 [EA] | – | * (reduced P. aeruginosa cytotoxicity to 99-75% of untreated, wild type levels at 50 mg/mL) | < 75% | – | –
CN(C)CCOc1cc2nc(-c3ccc(NC(=O)/C=C/c4ccc(F)cc4)cc3)n(O)c2cc1[N+](=O)[O-] [FS] | > 25 µM | * (reduced P. aeruginosa cytotoxicity to 99-75% of untreated, wild type levels at 50 mg/mL) | – | – | –
O=C(/C=C/c1ccc(-n2ccnc2)nc1)Nc1ccc(-c2nc3ccc([N+](=O)[O-])cc3n2O)cc1 [GS] | 10 to 25 µM | ** (reduced P. aeruginosa cytotoxicity below 75% of untreated, wild type levels at 50 mg/mL) | – | – | –
CC(=O)c1ccc(C(=O)Nc2ccc(-c3nc4ccc(-n5cccn5)cc4n3O)cc2)cc1 [FY, 4-Acetyl-N-[4-(1-hdroxyy-6-pyrazol-1-yl-1H-benzoimidazol-2-yl)-phenyl]-benzamide] | > 25 µM | * (reduced P. aeruginosa cytotoxicity to 99-75% of untreated, wild type levels at 50 mg/mL) | – | – | > 25 µM
O=C(/C=C/c1ccc(F)cc1F)Nc1ccc(-c2nc3ccc([N+](=O)[O-])cc3n2O)cn1 [EB] | – | * (reduced P. aeruginosa cytotoxicity to 99-75% of untreated, wild type levels at 50 mg/mL) | < 75% | – | –
CC(=O)c1ccc(/C=C/C(=O)Nc2ccc(-c3nc4ccc(C(F)(F)F)cc4n3O)cc2)cc1 [GE] | 10 to 25 µM | * (reduced P. aeruginosa cytotoxicity to 99-75% of untreated, wild type levels at 50 mg/mL) | – | – | –
CC(=O)c1ccc(/C=C/C(=O)Nc2ccc(-c3nc4ccc(C(C)=O)cc4n3O)cc2)cc1 [GI] | > 25 µM | * (reduced P. aeruginosa cytotoxicity to 99-75% of untreated, wild type levels at 50 mg/mL) | – | – | –
O=C(/C=C/c1ccc(F)cc1)Nc1ccc(-c2nc3cc(F)c([N+](=O)[O-])cc3n2O)cc1 [FA, N-[4-(5-Fluoro-1-hydroxy-6-nitro-1H-benzoimidazol-2-yl)-phenyl]-3-(4-fluoro-cinnamyl)-amide] | 10 to 25 µM | ** (reduced P. aeruginosa cytotoxicity below 75% of untreated, wild type levels at 50 mg/mL) | – | > 25 µM | –
CC(=O)c1ccc(/C=C/C(=O)Nc2ccc(-c3nc4ccccc4n3O)cc2)cc1 [GH] | 10 to 25 µM | * (reduced P. aeruginosa cytotoxicity to 99-75% of untreated, wild type levels at 50 mg/mL) | – | – | –
N#Cc1ccc(C(=O)Nc2ccc(-c3nc4ccc(C#N)cc4n3O)cc2)cc1 [CO] | – | * (reduced P. aeruginosa cytotoxicity to 99-75% of untreated, wild type levels at 50 mg/mL) | 75 to 99% | – | –
O=C(/C=C/c1ccc(F)cc1)Nc1ccc(-c2nc3ccc(-n4cccn4)cc3n2O)cc1 [FX, (E)-3-(4-Fluoro-phenyl)-N-[4-(1-hydroxy-6-pyrazol-1-yl-1H-benzoimidazol-2-yl)-phenyl]-acrylamide] | > 25 µM | * (reduced P. aeruginosa cytotoxicity to 99-75% of untreated, wild type levels at 50 mg/mL) | – | > 25 µM | –
CC(=O)c1ccc(/C=C/C(=O)N(CC(=O)O)c2ccc(-c3nc4ccc(C#N)cc4n3O)cc2)cc1 [GO, {[(E)-3-(4-Acetyl-phenyl)-acryloyl]-[4-(6-cyano-1-hydroxy-1H-benzoimidazol-2-yl)-phenyl]-amino}-acetic acid] | > 25 µM | * (reduced P. aeruginosa cytotoxicity to 99-75% of untreated, wild type levels at 50 mg/mL) | – | – | –

Compound | EC50 (ExsA) | Cytotoxicity at 50 μg/mL Pseudomonas (P. aeruginosa) | activity at 50 µg/mL (Y. pseudotuberculosis) | EC50 (LcrF (VirF); [1]) | EC50 (LcrF (VirF); [2])
Cc1cc2nc(-c3ccc(NC(=O)/C=C/c4ccc(F)cc4)cc3)n(O)c2cc1[N+](=O)[O-] [EO, (E)-3-(4-Fluoro-phenyl)-N-[4-(1-hydroxy-5-methyl-6-nitro-1H-benzoimidazol-2-yl)-phenyl]-acrylamide] | – | ** (reduced P. aeruginosa cytotoxicity below 75% of untreated, wild type levels at 50 mg/mL) | 75 to 99% | – | –
CC(=O)c1ccc(/C=C/C(=O)Nc2ccc(-c3nc4ccc(C(=O)O)cc4n3O)cc2)cc1 [GL] | > 25 µM | ** (reduced P. aeruginosa cytotoxicity below 75% of untreated, wild type levels at 50 mg/mL) | – | – | –
CC(=O)c1ccc(C(=O)Nc2ccc(-c3nc4ccc(-n5ccnc5)cc4n3O)cc2)cc1 [FZ, 4-Acetyl-N-[4-(1-hdroxy-6-imidazol-1-yl-1H-benzoimidazol-2-yl)-phenyl]-benzamide] | > 25 µM | * (reduced P. aeruginosa cytotoxicity to 99-75% of untreated, wild type levels at 50 mg/mL) | – | – | –
N#Cc1ccc2nc(-c3ccc(NC(=O)/C=C/c4ccc(-n5ccnc5)nc4)cc3)n(O)c2c1 [GV] | > 25 µM | ** (reduced P. aeruginosa cytotoxicity below 75% of untreated, wild type levels at 50 mg/mL) | – | – | –
CC(=O)c1ccc(/C=C/C(=O)Nc2ccc(-c3nc4ccc(S(C)(=O)=O)cc4n3O)cc2)cc1 [GK] | > 25 µM | * (reduced P. aeruginosa cytotoxicity to 99-75% of untreated, wild type levels at 50 mg/mL) | – | – | –
O=C(/C=C/c1ccc(F)cc1)Nc1ccc(-c2nc3ccc([N+](=O)[O-])cc3n2O)cn1 [DY] | – | * (reduced P. aeruginosa cytotoxicity to 99-75% of untreated, wild type levels at 50 mg/mL) | < 75% | – | –
CC(=O)c1ccc(/C=C/C(=O)Nc2ccc(-c3nc4ccc(F)cc4n3O)cc2)cc1 [GR] | 10 to 25 µM | * (reduced P. aeruginosa cytotoxicity to 99-75% of untreated, wild type levels at 50 mg/mL) | – | – | –
CC(=O)c1ccc(/C=C/C(=O)Nc2ccc(-c3nc4cc(OCCN5CCOCC5)c([N+](=O)[O-])cc4n3O)cc2)cc1 [FV] | > 25 µM | ** (reduced P. aeruginosa cytotoxicity below 75% of untreated, wild type levels at 50 mg/mL) | – | – | > 25 µM
CC(=O)c1ccc(/C=C/C(=O)Nc2ccc(-c3nc4ccc(S(N)(=O)=O)cc4n3O)cc2)cc1 [GF] | 10 to 25 µM | * (reduced P. aeruginosa cytotoxicity to 99-75% of untreated, wild type levels at 50 mg/mL) | – | – | –
CC(=O)c1ccc(C(=O)Nc2ccc(-c3nc4cc(C)c([N+](=O)[O-])cc4n3O)cc2)cc1 [EQ] | – | * (reduced P. aeruginosa cytotoxicity to 99-75% of untreated, wild type levels at 50 mg/mL) | < 75% | – | –
O=C(/C=C/c1ccc(C(F)(F)F)nc1)Nc1ccc(-c2nc3ccc([N+](=O)[O-])cc3n2O)cc1 [GT] | < 10 µM | ** (reduced P. aeruginosa cytotoxicity below 75% of untreated, wild type levels at 50 mg/mL) | – | – | –
O=C(/C=C/c1ccc(F)cc1)Nc1ccc(-c2nc3ccc(-n4ccnc4)cc3n2O)cc1 [FT] | 10 to 25 µM | * (reduced P. aeruginosa cytotoxicity to 99-75% of untreated, wild type levels at 50 mg/mL) | – | > 25 µM | –
CC(=O)c1ccc(/C=C/C(=O)Nc2ccc(-c3nc4ccc(C#N)cc4n3O)cc2)cc1 [FW] | 10 to 25 µM | ** (reduced P. aeruginosa cytotoxicity below 75% of untreated, wild type levels at 50 mg/mL) | – | 10 to 25 µM | –
CCOP(=O)(Cc1cc(/C=C/C(=O)Nc2ccc(-c3nc4ccc([N+](=O)[O-])cc4n3O)cc2)ccc1F)OCC [EF] | – | * (reduced P. aeruginosa cytotoxicity to 99-75% of untreated, wild type levels at 50 mg/mL) | < 75% | – | –
CC(=O)c1ccc(/C=C/C(=O)Nc2ccc(-c3nc4ccc([N+](=O)[O-])cc4n3O)cc2)cn1 [GN] | < 10 µM | ** (reduced P. aeruginosa cytotoxicity below 75% of untreated, wild type levels at 50 mg/mL) | – | – | –
CC(=O)c1ccc(/C=C/C(=O)Nc2ccc(-c3nc4ccc(Br)cc4n3O)cc2)cc1 [GD] | < 10 µM | * (reduced P. aeruginosa cytotoxicity to 99-75% of untreated, wild type levels at 50 mg/mL) | – | – | –
